Results: paper PMC5618429, “Kempopeptin C, a Novel Marine-Derived Serine Protease Inhibitor Targeting Invasive Breast Cancer” (Marine Drugs, 2017)

Assays:
[1] = target: T1, plasmin from human plasma (Homo sapiens, UniProt P00747); test: Plasmin inhibition assay; assay type: biochemical; conditions: mean ± SD, n = 3; 30-min preincubation; read-out: IC50 against plasmin
T1 construct: purchased Sigma P1867; host or cells: human plasma
Description: The plasmin inhibition assay was carried out by incubating 5 µL of […] plasmin from human plasma (P1867, Sigma, St. Louis, MO, USA) with 1 µL of different concentrations of inhibitors (2 and 3; half log dilutions prepared in DMSO) or the solvent control in the presence of 89 µL assay buffer (0.05 M Tris-HCl, pH 8.9). After a 30-min incubation time, 5 µL of 1.7 mM substrate solution (N-p-Tosyl-D-Gly-Pro-Lys-4-nitroanilide acetate salt; prepared in assay buffer) were added to each well. The reaction was monitored by measuring the absorbance at 405 nm every 30 s for 30 min using the SpectraMax M5 plate reader (Molecular Devices).

[2] = target: T2, recombinant human matriptase (Homo sapiens, UniProt Q9Y5Y6); test: In vitro cleavage of CDCP1 by matriptase (SDS-PAGE, silver stain); assay type: biochemical; conditions: enzyme to substrate ratio 1:5, pH 9.0, 37 °C, 30 min and 2 h, 10‒0.01 µM inhibitor, qualitative
T2 construct: purchased R&D Systems 3946-SE-010
T2 sequence (Q9Y5Y6 615-855 limits assumed): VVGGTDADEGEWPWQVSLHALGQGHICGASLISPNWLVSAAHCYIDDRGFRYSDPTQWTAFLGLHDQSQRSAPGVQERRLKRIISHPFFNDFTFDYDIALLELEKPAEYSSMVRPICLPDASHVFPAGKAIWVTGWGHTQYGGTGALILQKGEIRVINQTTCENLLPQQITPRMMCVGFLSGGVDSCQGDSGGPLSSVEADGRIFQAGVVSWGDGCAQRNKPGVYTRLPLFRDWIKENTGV
Description: Due to the significance of these proteases in cancer progression and metastasis, as well as their functional redundancy with respect to targeting overlapping substrates, we focused our studies on examining the effect of kempopeptin C (3) on the downstream cellular substrates of matriptase. Due to the limited amount of 3, our study aimed to provide a qualitative preliminary characterization of CDCP1 and Dsg-2 cleavage inhibition by kempopeptin C (3). […] CDCP1 is considered a potential prognostic marker with expression levels found to correlate with the recurrence and survival rate of cancer patients. […] The exact mechanism regulating the generation of the LMW fragment is poorly understood; however, there is evidence for the involvement of serine protease proteolytic activity. Several studies provided evidence for serine protease-mediated (trypsin, plasmin and matriptase) cleavage of CDCP1 [15, 38]. Therefore, we examined the ability of recombinant human matriptase to cleave CDCP1 in vitro and assessed the effect of kempopeptin C (3) on inhibiting/reducing this cleavage. Recombinant human matriptase was incubated with CDCP1 (final molar ratio 1:5) at different time points (30 min and 2 h) at 37 °C in the presence of varying concentrations of kempopeptin C (3) or solvent control (Figure 4A,B). […] LMW fragments were more readily detected at longer incubation times (2 h). […]

T1 sequence (P00747 581-810 limits assumed): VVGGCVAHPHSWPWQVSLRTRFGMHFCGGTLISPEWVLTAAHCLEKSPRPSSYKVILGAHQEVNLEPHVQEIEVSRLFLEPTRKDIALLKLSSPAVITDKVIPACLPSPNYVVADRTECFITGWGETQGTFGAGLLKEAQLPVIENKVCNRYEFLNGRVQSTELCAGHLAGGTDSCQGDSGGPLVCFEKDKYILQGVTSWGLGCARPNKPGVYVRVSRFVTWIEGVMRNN
T1 sequence (P00747 98-580 partner limits assumed): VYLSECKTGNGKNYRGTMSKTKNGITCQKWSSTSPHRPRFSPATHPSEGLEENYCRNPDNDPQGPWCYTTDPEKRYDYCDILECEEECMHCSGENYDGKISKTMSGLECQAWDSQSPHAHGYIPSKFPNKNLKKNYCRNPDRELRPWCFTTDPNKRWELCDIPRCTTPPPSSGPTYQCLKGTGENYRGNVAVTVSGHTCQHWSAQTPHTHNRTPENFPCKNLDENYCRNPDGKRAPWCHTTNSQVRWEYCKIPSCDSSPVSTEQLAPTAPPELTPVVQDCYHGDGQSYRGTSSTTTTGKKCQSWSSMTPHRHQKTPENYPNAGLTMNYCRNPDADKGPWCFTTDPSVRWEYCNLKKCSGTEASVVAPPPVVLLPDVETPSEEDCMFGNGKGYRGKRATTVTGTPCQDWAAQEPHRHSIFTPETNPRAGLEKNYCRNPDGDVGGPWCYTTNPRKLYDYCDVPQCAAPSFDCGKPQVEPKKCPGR

SMILES: CCCC(=O)NC(C(=O)NC1C(=O)NC(CCCCN)C(=O)NC2CCC(O)N(C2=O)C(C(C)CC)C(=O)N(C)C(Cc2ccc(OC)c(Cl)c2)C(=O)NC(C(C)C)C(=O)OC1C)C(C)C (stereo not drawn) [Kempopeptin C, kempopeptin C]
- IC50 [1]: 360 ± 90 nM
- Inhibition of in vitro cleavage of CDCP1 by matriptase [2]: inhibit the cleavage
- Inhibition of in vitro cleavage of CDCP1 by matriptase ([2]; listed as Kempopeptin C (3)): able to only minimize the cleavage at 10 µM
